This is an account of results in article PMC10390107, “The 4-(dimethylaminoalkyl)piperazine inhibitors of α-glucosidase: allosteric enzyme inhibition and identification of interacting chemical groups” (Turkish Journal of Chemistry, 2022).

Entries after “also recorded” stand apart in the source; their conditions may differ. Read-outs that look alike come from different tables or passages of the source.

The test deals with T1, α-glucosidase (EC 3.2.1.20) from Saccharomyces cerevisiae (Saccharomyces cerevisiae, UniProt P53341).
T1 construct: purchased Sigma Chemical Co., St. Louis, USA
T1 sequence (P53341 whole entry): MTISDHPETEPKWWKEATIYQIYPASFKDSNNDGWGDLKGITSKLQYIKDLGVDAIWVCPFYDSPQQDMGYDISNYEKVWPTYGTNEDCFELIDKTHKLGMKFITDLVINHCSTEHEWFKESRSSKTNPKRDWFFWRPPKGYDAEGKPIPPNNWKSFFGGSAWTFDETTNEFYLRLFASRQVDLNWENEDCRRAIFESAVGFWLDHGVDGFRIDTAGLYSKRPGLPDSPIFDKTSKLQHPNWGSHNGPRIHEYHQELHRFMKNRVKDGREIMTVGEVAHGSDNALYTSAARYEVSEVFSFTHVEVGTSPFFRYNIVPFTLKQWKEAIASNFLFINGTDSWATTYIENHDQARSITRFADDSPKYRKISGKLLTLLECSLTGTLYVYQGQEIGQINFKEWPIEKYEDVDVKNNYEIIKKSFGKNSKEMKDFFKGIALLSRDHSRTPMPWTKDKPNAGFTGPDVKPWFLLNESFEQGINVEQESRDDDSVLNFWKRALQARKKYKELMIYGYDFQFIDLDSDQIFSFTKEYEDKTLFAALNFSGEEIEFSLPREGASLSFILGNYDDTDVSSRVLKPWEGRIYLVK
The experiment in a line: biochemical. In kind it is biochemical. Conditions: mean of quadruplet experiments ± SEM, from Dixon plots, pH 6.8, 37 °C. The procedure:
All in vitro α-glucosidase inhibition assays were performed in a 96-well microplate format. The α-glucosidase inhibition assay reported elsewhere was customized to suit the experimental needs of the current work. The assay mixture contained 50 mM sodium phosphate buffer (pH 6.8), 20 mU of α-glucosidase (EC 3.2.1.20) from Saccharomyces cerevisiae (Sigma Chemical Co., St. Louis, USA), and 1.0 mM of p-nitrophenyl-α-D-glucopyranoside (PNP-G) substrate. All target compounds were dissolved in DMSO with the assay mixture containing DMSO at a final concentration of 3%. […] The reaction was continuously monitored at 400 nm in SpectraMax Plus 384® microplate reader (Molecular Devices, CA, USA). […] All assays were performed as four individual experiments out of which the values of mean and standard error of mean (SEM) were calculated.
The enzyme kinetics assay procedure was essentially the same as mentioned above except that it was specifically designed for the kinetic work. […] The type of inhibition was calculated from the Lineweaver-Burk plots which was further confirmed by the Dixon plot using Grafit 7.0.3 software (Erithacus Software Ltd., Staines, UK). The Ki values were also calculated from their respective Dixon plots. All kinetic experiments were conducted in quadruplicate from which mean Ki values and the SEM were calculated.

What is called Ki is a dissociation constant, usually derived from enzyme kinetics or from competition with a known ligand. `CN(C)CCCN1CCN(C(=S)SCCCC(=O)c2ccc(Cl)cc2)CC1` [PC1]: for the setting “read-out: Ki”, the Ki was determined as 5.75 ± 0.2 µM. For `CN(C)CCCN1CCN(C(=S)SCCC(=O)c2ccccc2)CC1` [PC9], the Ki result is “no inhibitory activity; also recorded: Inactive”.
